How the values were obtained:
HSP70 = HSP70 level in tumor tissue by western blot analysis; assay type: in vivo, SCID mice bearing human breast cancer xenografts; conditions: 40 mg/kg i.v. single dose
p185 = p185 expression in xenografts by western blot analysis; assay type: in vivo, SCID mice bearing human breast cancer xenografts; conditions: 40 mg/kg i.v. single dose
HSP90 = conditions: 40 mg/kg i.v. single dose; 48-hours and 72-hours after administration

Row | concentration in tumor tissue (mouse, in vivo, iv, 40 mg/kg) [µg/g] | time remaining detectable in tumor tissue after administration (mouse, in vivo, iv, 40 mg/kg) | Structure (SMILES) | concentration in normal tissues (single intravenous dose of 40 mg/kg, SCID mice, 7-hours post-administration, HPLC) | HSP70 concentration in tumor tissue of treated vs untreated mice (HSP70; 4-hours and 7-hours after administration) | HSP70 concentration in tumor tissue of treated vs untreated mice (HSP70; 48-hours and 72-hours after administration) | increase of p185 expression in xenografts over untreated mice (p185; 2-hours after administration) [fold] | p185 expression in xenografts below control levels (p185; 7-hours, 24-hours and 48-hours after administration) [%] | HSP90 concentration in tumor tissue of treated vs untreated mice (HSP90)
1 | 0.5 to 1 | more than 48 hours | CO[C@H]1C=C/C=C(\C)C(=O)NC2=CC(=O)C(N)=C(C[C@@H](C)C[C@H](OC)[C@H](O)[C@@H](C)/C=C(\C)[C@@H]1OC(N)=O)C2=O (stereo in doubt) [Example 17-AG] |  |  |  |  |  | 
2 |  |  | C=CCNC1=C2C[C@@H](C)C[C@H](OC)[C@H](O)[C@@H](C)/C=C(\C)[C@H](OC(N)=O)[C@@H](OC)/C=C\C=C(/C)C(=O)NC(=CC1=O)C2=O [Example 17-AAG, 17-allylaminogeldanamycin] | below detection levels | lower | elevated | 2 | 30 | elevated
